Measured values published in ChEMBL document CHEMBL1137242, “Application of azide-alkyne cycloaddition 'click chemistry' for the synthesis of Grb2 SH2 domain-binding macrocycles” (Bioorg Med Chem Lett, 2006).
Starred links: 1 amine or outer side, 2 acyl side, 3 side chain; linkers in the order of their positions; H or OH if unused. Non-standard residues stand in square brackets, D forms with d. Residues, ends and D or L forms follow the SMILES beside them. *: point of attachment. Pmp = N[C@@H](Cc1ccc(CP(=O)(O)O)cc1)C(=O)O; X1 = O=C(Cn1cc(CCCN[*:1])nn1)[*:2]; Ac6c = NC1(C(=O)O)CCCCC1; NHPentyl = CCCCCN*

target: Growth factor receptor-bound protein 2 (Homo sapiens, UniProt P62993); assay: Binding affinity to Grb2-SH2 domain
Sequence (P62993 whole entry, the tested form may be a part): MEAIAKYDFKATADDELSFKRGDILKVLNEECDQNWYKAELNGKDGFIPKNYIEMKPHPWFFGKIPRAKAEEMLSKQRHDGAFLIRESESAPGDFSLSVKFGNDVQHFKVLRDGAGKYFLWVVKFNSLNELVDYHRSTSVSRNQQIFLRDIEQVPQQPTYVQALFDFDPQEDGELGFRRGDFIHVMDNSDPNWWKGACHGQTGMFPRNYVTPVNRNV

Row | Structure (SMILES) | Kd [nM]
1 | NC(=O)C[C@@H]1NC(=O)C2(CCCCC2)NC(=O)[C@@H](Cc2ccc(CP(=O)(O)O)cc2)NC(=O)Cn2cc(nn2)CCCNC(=O)[C@H](CC(N)=O)NC(=O)C2(CCCCC2)NC(=O)[C@@H](Cc2ccc(CP(=O)(O)O)cc2)NC(=O)Cn2cc(nn2)CCCNC1=O | > 1000
2 | NC(=O)C[C@@H]1NC(=O)C2(CCCCC2)NC(=O)[C@H](Cc2ccc(CP(=O)(O)O)cc2)NC(=O)Cn2cc(nn2)CCCNC1=O | 230
3 | NC(=O)C[C@@H]1NC(=O)C2(CCCCC2)NC(=O)[C@@H](Cc2ccc(CP(=O)(O)O)cc2)NC(=O)Cn2cc(nn2)CCCNC1=O | > 1000
4 | NC(=O)C[C@@H]1NC(=O)C2(CCCCC2)NC(=O)[C@H](Cc2ccc(CP(=O)(O)O)cc2)NC(=O)Cn2cc(nn2)CCCNC(=O)[C@H](CC(N)=O)NC(=O)C2(CCCCC2)NC(=O)[C@H](Cc2ccc(CP(=O)(O)O)cc2)NC(=O)Cn2cc(nn2)CCCNC1=O | 1.8
5 | C#CCCCNC(=O)[C@H](CC(N)=O)NC(=O)C1(NC(=O)[C@H](Cc2ccc(CP(=O)(O)O)cc2)NC(=O)CN=[N+]=[N-])CCCCC1 | > 1000
6 | CCCCCNC(=O)[C@H](CC(N)=O)NC(=O)C1(NC(=O)[C@H](Cc2ccc(CP(=O)(O)O)cc2)NC(=O)Cn2cc(CCCNC(=O)[C@H](CC(N)=O)NC(=O)C3(NC(=O)[C@H](Cc4ccc(CP(=O)(O)O)cc4)NC(C)=O)CCCCC3)nn2)CCCCC1 (Ac-[Pmp][Ac6c]N[X1][Pmp][Ac6c]N-NHPentyl) | 1.1
